Laboratory results from patent US20230172201A1, “Use of 4-Phenylbutyric Acid and/or 3-Phenylbutyric Acid and/or 2-Phenylbutyric Acid in Preventing and Treating Cryptogamic Diseases” (Institut National de Recherche Pour L'Agriculture, …, priority 2020, published 2023).

Tested on: Botrytis cinerea (BMM strain)
Assay: Mycelial development in liquid medium, absorbance at 600 nm (nephelometry)
Assay type: cell-based
Details: Botrytis cinerea, 96 h; 1 mM; incubation for 4 days; Example 4; read-out: degree of inhibition

CCC(C(=O)O)c1ccccc1 (stereo not shown) [2-PBA, 2-Phenylbutyric acid]
inhibition at 1000 µM: ~70%
